{"source": "patent US11129867B2", "about": "“Method of treating cancer cells” (priority 2017, dated 2021)", "key": {"[1]": {"system": "MCF7", "assay": "WST-8 cell viability assay, MCF7", "assay_type": "cell-based", "details": "MCF7 (breast cancer), different concentrations, 48 hours, FIG. 3", "method": "(§1) Human oral squamous cell carcinoma (OSCC) cell lines, Ca922, OSC20, OECM-1, OC3, CGHNC9, HSC3, plus A549, MDA-MB-231, MCF7, Huh7, HeLa-Kyoto, Detroit 562, H520, H2170, and 293T cells were used in this study. Ca922, CGHNC9, MDA-MB-231, MCF7, Huh7, HeLa-Kyoto, Detroit 562, and 293T cells were all cultured in high-glucose Dulbecco's Modified Eagle Medium (DMEM). OSC20 and HSC3 cells were cultured in Dulbecco's Modified of Eagle's Medium/Ham's F-12 50/50 Mix (1:1). OECM-1, A549, H520, and H2170 cells were grown in RPMI-1640 medium. All culture media were supplemented with 10% fetal bovine serum (FBS) and 1% penicillin-streptomycin. OC3 cells were cultured in 1:1 DMEM/KSFM (keratinocyte serum-free medium) with supplied supplement of Bovine pituitary extract (BPE) and epidermal growth factor (EGF) followed by instruction. All the cells in this study were maintained at 37° C. in humidified atmosphere containing 5% CO2.\n(§2) WST-8 [2-(2-methoxy-4-nitrophenyl)-3-(4-nitrophenyl)-5-(2,4-disulfophenyl)-2H-tetrazolium, monosodium salt] cell viability assay\n(§3) Cells were seeded into 96 well plate and incubated at 37° C. overnight. […] The amount of formazan produced is proportional to the number of live cells and is expressed as cellular viability. […] Cell viability was measured at the absorbance of 450/655 nm wavelength by ELISA reader."}, "[2]": {"system": "HeLa-Kyoto", "assay": "WST-8 cell viability assay, HeLa-Kyoto", "assay_type": "cell-based", "details": "HeLa-Kyoto (cervical cancer), different concentrations, 48 hours, FIG. 3", "method": "as §1, §2, §3"}, "[3]": {"system": "Ca922 cells", "assay": "Annexin V staining with flow cytometry", "assay_type": "cell-based, human", "details": "Ca922, 12.5 μM TMR-GBP, FIG. 6B", "method": "[…] Diluted 10× Binding Buffer to 1× using distilled water. Washed cells once in PBS, then once in 1× Binding Buffer. Resuspended cells in 1× Binding Buffer at 1-5×10^6/mL. Next, added 5 μL of fluorochrome-conjugated Annexin V to 100 μL of the cell suspension. Sample was incubated 10-15 minutes at room temperature. Afterwards, washed cells in 1× Binding Buffer and resuspend in 200 μL of 1× Binding Buffer. Analyzed by flow cytometry within 4 hours, storing at 2-8° C. in the dark."}, "[4]": {"system": "mitochondria of Ca922 cells", "assay": "Immunofluorescence staining of TOM20 and cytochrome-c", "assay_type": "cell-based, human", "details": "Ca922, different dose, 8 or 24 hours, FIG. 7", "method": "Ca922 cells were treated with different doses of TMR-GBP for 8 or 24 hours and then fixed with 4% formaldehyde. Representative images showing the staining of mitochondria marker TOM20 and cytochrome-c. Scale bar indicates 10 μm.\nImmunofluorescence Staining\nCells grown on coverslips were washed with 1×PBS and fixed by PTEMF buffer (20 mM PIPES pH 6.8, 0.2% Triton X-100, 10 mM EGTA, 1 mM MgCl2, and 4% formaldehyde) or 4% paraformaldehyde for 10 minutes at room temperature. Then, fixation buffer was replaced with 1×PBST and the cells were washed with 1×PBST for another 10 minutes at room temperature. Coverslips were washed with 1×PBST twice gently and incubated with primary antibodies at room temperature for 1 hour. Next, washed with PBST for three times (2, 2, 5 minutes). Afterwards, coverslips were cultured in Alex Fluor-conjugated secondary antibodies and DAPI at room temperature for 30 minutes, washed three times (2, 2, 5 minutes), rinsed with ddH2O and mounted with mounting medium. Antibodies concentration used in this analysis is 1:1000 dilution. Images were acquired with specific fluorescence wavelength by Leica DMI6000 inverted microscope equipped with HCX PL FL 100λ/NA1.40 objective and EMCCD camera. All images were analyzed by MetaMorph software."}, "[5]": {"system": "intracellular ROS in Ca922 cells", "assay": "DCFDA cellular ROS detection assay", "assay_type": "cell-based, human", "method": "Ca922 cells were seeded in dark, clear bottom 96-well microplate with 25,000 cells per well. Cells were then labeled with 25 μM DCFDA for 45 minutes and 25 μM TMR-GBP for 6 hours. 1% H2O2 (1 hour) and 55 mM TBHP (4 hours) treatments were positive control, mimic ROS activity to oxidize DCFDA to fluorescent DCF. Cells were then analyzed on a fluorescent plate reader. Standard deviations of three independent experiments were indicated as bars.\nDCFDA Cellular ROS Detection Assay\nSeeded cells at 2.5×10^4 cells/well on a dark, clear bottom 96-well microplate and incubated in complete media with 10% FBS without phenol red. Prepared 1× Buffer by diluting 10× buffer in ddH2O and a working DCFDA solution (25 μM) by adding the appropriate volume of 20 mM DCFDA to 1× Buffer. Washed cells once in 1× Buffer and stained cells with 25 μM DCFDA for 45 minutes at 37° C. Then, washed cells once in 1× Buffer or 1×PBS. TMR-GBP, H2O2 and TBHP could be diluted in complete media with 10% FBS without phenol red. Added 100 μL/well of TMR-GBP, H2O2 (as positive control), TBHP (as positive control) and incubated for desired time period. Cells should not be washed after treatment with the TBHP or other compounds of interest. It should contain non-stained cells to determine background fluorescence. Read signal at Ex/Em: 485/535 nm by fluorescent plate reader"}}, "note": "Where a SMILES comes first, the peptide text is derived from it. The star is where a group is joined. X1 = CN(C)c1ccc2c(-c3ccc(C(=O)*)cc3C(=O)[O-])c3ccc(=[N+](C)C)cc-3oc2c1", "data": [{"smiles": "CN(C)c1ccc2c(-c3ccc(C(=O)N[C@@H](CC(N)=O)C(=O)N[C@@H](Cc4ccc(O)cc4)C(=O)N[C@@H](CCCNC(=N)N)C(=O)N[C@@H](Cc4c[nH]c5ccccc45)C(=O)N[C@@H](CCCNC(=N)N)C(=O)N[C@@H](CS)C(=O)N[C@@H](CCCCN)C(=O)N[C@@H](CC(N)=O)C(=O)N[C@@H](CCC(N)=O)C(=O)N[C@@H](CC(N)=O)C(=O)O)cc3C(=O)[O-])c3ccc(=[N+](C)C)cc-3oc2c1", "note": "[TMR-GBP] (X1-NYRWRCKNQN-OH; N-terminus and C-terminus assumed)", "values": [{"measurement": "cell viability", "setting": "[1]", "result": "not markedly affected"}, {"measurement": "cell viability", "setting": "[2]", "result": "not markedly affected"}, {"measurement": "apoptosis by Annexin-V-FITC labeling", "setting": "[3]", "result": "positively labeled by Annexin-V-FITC"}, {"measurement": "cytochrome-c release", "setting": "[4]", "result": "Cytochrome-c release upon TMR-GBP treatment was also detected"}, {"measurement": "morphology of mitochondria (TOM20)", "setting": "[4]", "result": "became fragmented when the concentration of TMR-GBP was increased or the treatment time was extended"}, {"measurement": "increase of ROS compared with control cells", "setting": "[5]; Ca922, 25 μM, 6 hours, DCFDA, after background subtraction, FIG. 9", "result": 5, "unit": "folds"}, {"measurement": "ROS production with NAC treatment", "setting": "[5]; NAC treatment in the presence of TMR-GBP", "result": "reversed by NAC treatment"}]}]}
